Source: patent US7989466B2, “Methods to inhibit or augment an inflammatory response” (Cambridge Enterprise Limited, priority 1999, dated 2011)
Like-named read-outs stand apart in the source and are kept apart here. Positions of bridges follow the written chain, without caps; N, C: chain ends. Non-standard residues stand in square brackets, D forms with d. Residues, ends and D or L forms follow the SMILES beside them. No end group written: not given here.

Columns and labels:
[1] = Mouse LD50 (modified LD50 technique); format: in vivo; conditions: for LD50: IV
[2] = test system: T cell-dependent antibody response; test: Antibody response in mice immunized with sheep red blood cells; format: in vivo, mouse; conditions: T cell-independent response not prevented
CCR-2 = CCR-2 (Homo sapiens, UniProt P41597); test: Competitive binding to CCR-2 on CHO cells; conditions: read-out: ED50, Binding to CCR-2
Chain of CCR-2 (P41597 1-313 limits assumed): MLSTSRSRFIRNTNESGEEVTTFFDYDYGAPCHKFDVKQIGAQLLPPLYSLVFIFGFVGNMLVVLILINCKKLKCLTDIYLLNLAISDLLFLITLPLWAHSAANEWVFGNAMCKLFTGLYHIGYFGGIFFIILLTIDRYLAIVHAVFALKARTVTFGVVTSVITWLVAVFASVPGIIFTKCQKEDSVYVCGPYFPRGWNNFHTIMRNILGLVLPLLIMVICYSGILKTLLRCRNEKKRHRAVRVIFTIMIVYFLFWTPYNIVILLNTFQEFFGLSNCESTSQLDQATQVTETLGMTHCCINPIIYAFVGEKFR
Procedure: A competitive binding assay was used to determine the binding of A-I to chemokine receptors. These experiments were performed under ‘Horuk’ conditions (Hesselgesser et al., J. Biol. Chem., 273, 15687 (1998)), except that CHO cells expressing CCR-2 or CXCR-2 (AIDS Reagent Program, MRC London) were used. In each case, the specific binding of 0.25 nM labeled ligand to the cells was determined as the counts bound which were competable by 100 nM cold ligand. In each experiment, A-I was added from a stock solution in DMSO (with <0.1% DMSO final concentration in the assay).

[3] = target: recombinant human chemokine receptors (CCR1-5, CXCR4, CXCR1, CXCR2); test: Binding of biotin-labeled peptides to chemokine receptor expressing HOS/CHO lines; conditions: no evidence for any binding; read-out: affinity of any binding to recombinant human chemokine receptors
Procedure: Iodinated-RANTES and iodinated-MCP-1 (Amersham) were reconstituted in MilliQ water to a concentration of 50 nM (0.1 μCi/μl) with a specific activity of 2000 Ci/mmole. Iodinated-streptavidin was obtained (Amersham) at a stock concentration of 47 nM (0.1 μCi/μl) and a specific activity of 38 μCi/μg (55,000 Da). Cold RANTES and MCP-1 were purchased from R&D Systems (Minneapolis, Minn.), reconstituted in sterile PBS+1 mg/ml fatty acid free BSA (FAF-BSA) (Sigma A-6003) at 10 μg/ml ([…]). Cold streptavidin (Calbiochem) was reconstituted in sterile MilliQ to a concentration of 4 mg/ml (90 μM).
FAF-BSA was used throughout. All experiments were performed in binding medium (50 mM HEPES, 1 mM CaCl2, 1 mM MgCl2, 0.5% FAF-BSA pH 7.5) as described by Ruffing et al. (Cell. Immunol., 189, 160 (1998)) unless stated otherwise. Reactions were all performed at 4° C. and all buffers were pre-cooled to 4° C. unless stated otherwise.
The biotinylated peptide was synthesized as an N-terminal biotin conjugate of the sequence n′-[…]-c′ (SEQ ID NO:152; Affiniti Research) and confirmed as >90% pure by HPLC. […]
The binding of labeled peptide 2 and labeled peptide 3 to the parental HOS, parental CHO and 8 chemokine receptor expressing lines was compared. […] The amount of streptavidin molecules added was calculated in each case to be approximately 50-fold in excess over the number of chemokine receptor sites. […]

[4] = test system: MCP-1 co-mitogenic effect, cultured smooth muscle cells; test: Co-mitogenic effect of MCP-1 on cultured smooth muscle cells; format: cell-based; conditions: 100 μM; MCP-1 with 0.5% fetal calf serum
Procedure: Many chemokines are co-mitogenic with low concentrations of FCS, e.g., 50 ng/ml MCP-1+0.5% FCS is a mitogen for smooth muscle cells. Assays well known to the art for determination of DNA synthesis induced by any known chemokine plus a low concentration (<5%) of FCS on suitable cells (e.g., smooth muscle cells) in the presence and absence of the agent may be employed to screen agents for such inhibitory activity. See Porreca et al., J. Vasc. Res., 34, 58 (1997), the disclosure of which is incorporated by reference herein.
Peptide 3(1-12)[MCP-1] […] MCP-1 has been reported to be a weak co-mitogen with 0.5% fetal calf serum for cultured smooth muscle cells. […] (SEQ ID NO:1) is an MCP-1 receptor antagonist. The observation that peptide 3(1-12)[MCP-1]

[5] = test system: chemokine receptors on the surface of Jurkat cells; test: Binding to chemokine receptors on Jurkat cells; design: species or system human
Procedure: For Scatchard analysis, the absorbance readings at 450 nm were calibrated, by reference to a standard curve in which known amounts of labeled peptide were coupled to derivatized sepharose beads (activated thiol-sepharose 4B; Sigma T8512) via the cysteine residue in each peptide. Briefly, known amounts (1 fmol to 1 pmol) of biotin-labeled peptide were incubated with 1 mg of activated thiol-sepharose beads in 100 μl of PBS at 37° C. for 1 hour. Free activated thiols were then blocked by addition of cysteine to a final concentration of 10 mM. The peptide-conjugated beads were then washed 5 times in PBS and treated exactly as for the cells described above. The absorbance at 450 nm obtained when a known amount of peptide was coupled to the beads was used to construct a standard curve which was used to convert the absorbance readings obtained with cells into number of molecules of labeled peptide which had bound.

CC[C@@H](C)[C@H]1NC(=O)[C@@H](CCC(N)=O)NC(=O)[C@H](N)CSSC[C@H](C(N)=O)NC(=O)[C@@H](CC(C)C)NC(=O)[C@@H](CC(=O)O)NC(=O)[C@H]2CCCN2C(=O)[C@@H](CCCCN)NC(=O)[C@@H](CCC(N)=O)NC(=O)[C@@H](CCCCN)NC(=O)[C@@H](Cc2c[nH]c3ccccc23)NC1=O (H-[dC][dQ][dI][dW][dK][dQ][dK][dP][dD][dL][dC]-NH2; disulfide 1-11; N-terminus assumed)
lethality after intraperitoneal administration ([1]; 11 mg i.p.): did not result in lethality | LD50 [1]: 11.4 mg/mouse | LD50 ([1]; in vivo, read-out: LD50): 569 mg/kg | T cell-dependent antibody response [2]: prevented

C=CCCCCCCCCC(=O)N[C@H]1CCC(=O)NC1=O [A-I (NR58.4), [3S]-3-(undec-10-enoylamino)piperidine-2,6-dione]
EC50 (CCR-2): 5 nM

EICADPKQKWVQ [peptide 3(1-12)[MCP-1]]
Kd [3]: > 10000 nM | effect on the co-mitogenic effect of MCP-1 for cultured smooth muscle cells [4]: completely abolished

SYRRITSSKCPKEAV [peptide 2(1-15)[MCP-1]]
B, binding sites on Jurkat cells [5]: 55,000 sites/cell | Ka, chemokine receptors on the surface of Jurkat cells [5]: 250 nM
